According to publication PMC12040169 (PLOS Biology, 2025):

Experiment: in vitro
Settings: human, hela cells, % viability

Row | SMILES | viability at 28.5 h, 10 µM
1 | c1ccc(CN2CCC3(CC2)CNCc2ccccc2O3)cc1 [CBK282605] | 88.4%
2 | Cc1c(S(=O)(=O)Nc2ccc(-c3ccc(F)cc3)cc2)cnn1C [CBK281418] | 114%
3 | COc1cc(C(=O)N2CCCC3(CCN(C(=O)Cc4c[nH]c5ccccc45)C3)C2)cc(OC)c1OC (stereo not drawn) [CBK131601] | 96%
4 | Cc1cc(C)nc(Nc2cccc(C3CCCN3C(=O)CCOc3ccccc3C)n2)n1 (stereo not drawn) [CBK286496] | 90.7%
5 | O=C(C[C@@H]1O[C@H](CNCc2cccc(Cl)c2)[C@@H](O)[C@H]1O)N1CCOCC1 [CBK288905] | 77.3%
6 | CCn1nc(C)c(NC(=O)c2ncoc2-c2ccc(F)cc2)c1C [CBK282360] | 88%
7 | O=C(COc1nc2ccccc2s1)N1N=CCC1c1ccccc1 (stereo not drawn) [CBK270188] | 92.7%
8 | CCCNC(=O)C(C)Sc1nc2ccsc2c(=O)n1CC (stereo not drawn) [CBK296745] | 105%
9 | Clc1ccc(-c2nn3c4cc(N5CCNCC5)ccc4nc3c3ccccc23)cc1 [CBK268319] | 102%
10 | O=C(/C=C/c1cn(C2OC(CO)C(O)C2O)c(=O)[nH]c1=O)NCCCCCCNC(=O)C(F)(F)F (stereo not drawn) [CBK201231] | 99.1%
11 | Cc1cc(O)c(C(=O)Nc2cccc(Cl)c2)c(=O)n1Cc1ccccn1 [CBK287729] | 99.3%
12 | CC(C)CCNC(=O)c1cccc(-n2c(=S)[nH]c3cc(Cl)ccc3c2=O)c1 [CBK294444] | 107%
13 | O=C(/C=C/c1cccnc1)Nc1c(F)cc(F)cc1OC1CCNCC1 [CBK050324T] | 90.5%
14 | NC(=O)c1ccc(-c2nccnc2NCCc2ccncc2)cc1 [CBK036644] | 97.1%
15 | Cc1nc(-c2cccnc2)[nH]c(=O)c1CC(=O)N(C)C1CCCCC1 [CBK306310] | 88.7%
16 | O=C1CCCN1c1ccc(S(=O)(=O)N2CCN(c3ccccn3)CC2)cc1 [CBK268237] | 84.5%
17 | O=C(O)c1nccnc1C(=O)N1CCC(O)(c2ccc(Cl)cc2)CC1 [CBK286621] | 87.6%
18 | CC1(C)CC(=O)C=C(C(=O)Nc2ccccc2N2CCCNCC2)O1 [CBK038935T] | 112%
19 | COc1cccc(-c2cnc3[nH]c(=O)n(CCCO)c3n2)c1 [CBK065036] | 93.3%
20 | O=C(O)c1cc(S(=O)(=O)Nc2cc(-c3ccco3)n[nH]2)c(F)cc1Cl [CBK067292] | 92.6%
21 | COc1cc([N+](=O)[O-])cc2cc(C(=O)NNC(=O)c3ccccc3Cl)c(=O)oc12 [CBK267011] | 92.8%
22 | Cc1cc(Cl)c(S(=O)(=O)N2CCN(c3ccc(F)cc3)CC2)cc1OCC(N)=O [CBK266439] | 98.3%

Row | SMILES | viability at 28.5 h, 10 µM
23 | COc1ccc(CCCC(=O)NCc2ccc(OC3CCNCC3)cc2)cc1OC [CBK028428T] | 94.9%
24 | Cc1nonc1CN(C)C(=O)C1CC2C=CC1C21CC1 (stereo not drawn) [CBK282076] | 97.2%
25 | Cc1ccc(C(=O)Nc2nnc(C3=COCCO3)o2)cc1C [CBK287413] | 104%
26 | CS(=O)(=O)c1ccc(-n2cc(CN3CCC(Sc4ccccc4)CC3)nn2)cc1 [CBK149468] | 101%
27 | CC(=O)NS(=O)(=O)c1ccc(NC(=O)/C=C/c2cccc([N+](=O)[O-])c2)cc1 [CBK300492] | 88.6%
28 | COCCNC(=O)C1CCN(c2nc3c(-c4ccccc4F)csc3c(=O)[nH]2)CC1 [CBK215434] | 92.6%
29 | O=C1CN(Cc2cnn(-c3ccc(F)cc3)c2)CCN1C1CCCC1 [CBK281926] | 86.5%
30 | CC1(C)OC(N2CCN(Cc3ccccc3)CC2)=Nc2ccccc21 [CBK023933C] | 90.9%
31 | COc1cccc(-c2cccc(C3CCCN(C(=O)Cc4c[nH]c5ccccc45)C3)n2)c1 (stereo not drawn) [CBK286207] | 114%
32 | N#Cc1ccc(S(=O)(=O)N2CCC(OCc3ccncc3)C2)cn1 (stereo not drawn) [CBK305478] | 91%
33 | CSCC(=O)N1C[C@@H]2C[C@H](C1)c1c(-c3cncnc3)ccc(=O)n1C2 [CBK289195] | 79.4%
34 | Cc1nn(CCC#N)c(C)c1[C@@H]1C=C[C@@H](NS(=O)(=O)c2ccccc2)C1 [CBK288805] | 91%
35 | O=[N+]([O-])c1ccc(Cl)cc1CN1CCN(C/C=C/c2ccccc2)CC1 [CBK261568] | 106%
36 | c1ccc(CCNc2cncc(-c3cccs3)n2)nc1 [CBK065510] | 98.2%
37 | NC(=O)c1sc2nc(-c3cccnc3)ccc2c1N [CBK023645] | 66%
38 | O=C1c2ccccc2C(=O)N1CSc1nnc2c3ccccc3n(CCc3ccccc3)c2n1 [CBK263891] | 97.7%
39 | COc1ccc(-c2nc(NC(=O)Cc3ccc(N(C)C)cc3)cnc2-c2ccc(F)cc2)cn1 [CBK037582] | 97.9%
40 | O=C(O)c1cccc2c1C(=O)N(Cc1cccs1)C2 [CBK291246] | 95.3%
41 | COc1ccc(Cl)cc1NC(=O)C1CC(=O)N=C(N2CCOCC2)N1 (stereo not drawn) [CBK268893] | 100%
42 | O=C(O)c1cccc(NC(=O)c2cnc(-c3ccccc3)c(-c3ccco3)c2)c1 [CBK036710] | 93.4%
43 | COc1cc(/C=C/c2[nH]c(=O)[nH]c(=O)c2[N+](=O)[O-])cc(Br)c1OCC(=O)O [CBK267977] | 91.5%
44 | COc1cc(C=CC(=O)O)ccc1OCc1cn2cc(Cl)ccc2n1 [CBK296722] | 99.1%

Row | SMILES | viability at 28.5 h, 10 µM
45 | CCCn1nccc1S(=O)(=O)NCCN1CCCCC1CO (stereo not drawn) [CBK307259] | 82%
46 | CC(C)[C@H](CO)Nc1nc(-c2ccc3c(c2)OCO3)cn2ccnc12 [CBK038071] | 101%
47 | Cn1ncc(Cl)c1C1CCCCCN1C(=O)c1cccnc1 (stereo not drawn) [CBK285146] | 108%
48 | Cc1ccc(O)c(CN(CCCn2ccnc2)CC2CC=CCC2)c1 (stereo not drawn) [CBK282829] | 86.7%
49 | O=C(O)C1CC(=O)N(c2cccc3ccccc23)C1 (stereo not drawn) [CBK286902] | 88.8%
50 | Cc1ccc(C(=O)N2CCC(C(=O)NC(c3ccccc3)c3ccsc3)CC2)cc1 (stereo not drawn) [CBK060154] | 109%
51 | Cc1ccc(NS(=O)(=O)c2ccc(OCC(=O)Nc3ccccc3C(F)(F)F)cc2)cc1 [CBK269120] | 86.4%
52 | CC(NC(=O)N(CCC#N)C1CCCCC1)c1ccccc1 (stereo not drawn) [CBK156382] | 97.2%
53 | CN1CCC[C@H]1C(=O)Nc1nc2c(s1)C(=O)CC(C)(C)C2 [CBK144101] | 98.8%
54 | Cc1c(Br)c(C(F)(F)F)nn1CC(=O)N1CCCC1 [CBK071473] | 92.9%
55 | COc1ccccc1-c1ccc(CC2(C(=O)NCC3CCCCC3)CCOCC2)cc1 [CBK286519] | 98.5%
56 | COc1cc2c(cc1OC)CN(CC(O)COc1cccc3c1CCCC3)CC2 (stereo not drawn) [CBK003828] | 113%
57 | O=C(c1c(F)cccc1F)N1CCN(c2ncccn2)CC1 [CBK144517] | 89.3%
58 | Cc1nc(C)c(CCC(=O)N2CCCCC2Cn2cccn2)c(=O)[nH]1 (stereo not drawn) [CBK305310] | 102%
59 | O=[N+]([O-])c1ccc(N2CCN(S(=O)(=O)c3ccc4ccccc4c3)CC2)cc1 [CBK157773] | 93.6%
60 | CC(=O)NC1(c2ccccc2)CCN(C(=O)Nc2ccccc2-c2ccccc2)CC1 [CBK286288] | 94.9%
61 | Cc1noc(C)c1C(=O)N1CCN(Cc2ccco2)C[C@@H]1C(C)C [CBK284248] | 93.9%
62 | CO[C@@H]1CO[C@H]2[C@@H]1OC[C@@H]2Nc1nccc(-c2cccc(C#N)c2)n1 [CBK289532] | 79.8%
63 | CCc1c(C)sc(NC(=O)c2ccc(Br)o2)c1C#N [CBK021662] | 83.6%
64 | O=C(Cn1cc(C(=O)Nc2ccc(F)cc2)ccc1=O)Nc1nc2c(s1)CCCCC2 [CBK286080] | 99.3%
65 | CC(=O)c1ccc(S(=O)(=O)N2CCCCC2C)cc1 (stereo not drawn) [CBK069211] | 90%
66 | Cc1nn(CC(C)C(=O)N2CCCC(CN(C)C)C2)c(C)c1Cl (stereo not drawn) [CBK282186] | 102%

Row | SMILES | viability at 28.5 h, 10 µM
67 | OCCOc1ncnc2ccccc12 [CBK001412] | 107%
68 | CCOC(=O)CNS(=O)(=O)c1ccc(F)cc1 [CBK034442] | 92.3%
69 | COc1ccc(C2=NNC(=O)c3cc4sccc4n3C2)cc1 [CBK284205] | 93.1%
70 | O=C(CSc1nnc(-c2cc(Br)ccc2O)n1-c1ccccc1)N1CCc2ccccc21 [CBK268346] | 105%
71 | O=C(Nc1ccc(N2CCNCC2)nc1)c1cnccn1 [CBK029436T] | 126%
72 | COc1ccc(Br)c(C(CO)N(C)C(=O)Cc2cnccc2C)c1 (stereo not drawn) [CBK306267] | 96.4%
73 | CCn1c2ccccc2c2cc(CN(CCN(C)C)Cc3ccccc3)ccc21 [CBK261924] | 102%
74 | CN1[C@@H](CCC(=O)N2CCOCC2)CNC(=O)[C@@H]2[C@H]1CCN2C1CCCCC1 [CBK289032] | 88.9%
75 | COCc1ccc(Nc2ccccc2S(=O)(=O)c2ccccc2)cc1OCC1CCN(C(=O)OC(C)(C)C)CC1 [CBK175577] | 94.6%
76 | Cc1ncsc1CCS(=O)(=O)N1CCOCC1c1cccc(F)c1 (stereo not drawn) [CBK304254] | 91%
77 | Brc1c(OCc2ccccc2)ccc2[nH]ccc12 [CBK160845] | 96.5%
78 | CC1CNCCC1n1nc(-c2cccs2)ccc1=O (stereo not drawn) [CBK284221] | 82.9%
79 | Cc1cccn2cc(COC(=O)c3ccc(F)cc3N)nc12 [CBK298310] | 54.1%
80 | CCOc1cc(S(=O)(=O)NCCCN2CCOCC2)ccc1Br [CBK270111] | 87.4%
81 | CCOc1ccc(CNc2ccc(CNc3ncn[nH]3)cc2)cc1 [CBK267617] | 91.7%
82 | CCOC(=O)N1CCN(C(=O)CCC(=O)O)CC1 [CBK287075] | 97.3%
83 | CC(C)NC(=O)N1Cc2nc[nH]c2C[C@H]1c1nc(-c2ccc(F)c(Cl)c2)no1 [CBK288999] | 86.6%
84 | Cc1cc(S(=O)(=O)NCc2ccccc2)ccc1OCC(=O)N1CCN(C)CC1 [CBK268274] | 86.4%
85 | O=C(c1ccncc1)c1ccc(N2CCN(C3CC(=O)N(Cc4ccccc4)C3=O)CC2)cc1 (stereo not drawn) [CBK268934] | 106%
86 | CC(C)C[C@H]([C@@H]1C[C@@H](C(C)C)C(=O)O1)N1C(=O)c2ccccc2C1=O [CBK011526] | 93.9%
87 | CCc1nnc(N/N=C/c2ccc(OCc3ccc(F)cc3Cl)c(OC)c2)n1N [CBK278173C] | 87.1%
